# Experimental data published in patent US20030022872A1, “Vitamin d derivatives having substituents at the 2 alpha-position” (priority 2000, published 2003).
# Target: T1, bovine thymus vitamin D receptor (VDR) (Bos taurus, UniProt Q28037)
# T1 sequence (Q28037 1-426): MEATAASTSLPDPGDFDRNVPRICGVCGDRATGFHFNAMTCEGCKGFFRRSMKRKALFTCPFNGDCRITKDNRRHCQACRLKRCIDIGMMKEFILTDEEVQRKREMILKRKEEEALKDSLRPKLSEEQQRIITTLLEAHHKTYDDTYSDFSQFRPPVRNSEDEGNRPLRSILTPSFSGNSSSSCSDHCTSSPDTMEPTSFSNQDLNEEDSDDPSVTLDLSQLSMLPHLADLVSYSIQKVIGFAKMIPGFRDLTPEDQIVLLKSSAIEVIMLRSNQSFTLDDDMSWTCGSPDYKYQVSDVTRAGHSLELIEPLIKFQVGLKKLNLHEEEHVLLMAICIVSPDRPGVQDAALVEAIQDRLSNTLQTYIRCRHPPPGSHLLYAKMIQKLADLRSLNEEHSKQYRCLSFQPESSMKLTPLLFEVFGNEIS
# Conditions: relative value with 1α,25-dihydroxyvitamin D3 taken as 100; ratio of concentrations inhibiting 50% of [3H]-1α,25-dihydroxyvitamin D3 binding (0.1 nM tracer, overnight at 4° C.)
# Experimental: Each of the resultant supernatants (500 μl) was mixed with ACS-II (9.5 ml) ([sequence], England) for radioactivity measurement.
# X: relative VDR binding property of the vitamin D derivative of the present invention
substance,measurement,value
"(5Z,7E)-(1S,2S,3R,20R)-2-(3-hydroxypropoxy)-9,10-seco-5,7,10(19)-cholestatriene-1,3,25-triol [Compound 16]",relative VDR binding property X=(y/x)×100,180
